Test systems include SR; SF-295; HCC 2998; NCI-H23; M14; HCT-116; HCT-15; A498; SF-539; OVCAR-4; HOP-92; Malme-3M; 786-0; PC-3; MDA-MB-435; HL-60; LOX IMVI; UO-31; IGROV-1; NCI-H460.
Common to all, as to assay: DTP human tumour cell line panel, 48 h

SMILES strings stand for the structures.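 Following 48 hours of exposure in 96-well plates, responses at five concentrations were used to interpolate endpoints linearly. GI50 = concentration required for 50% inhibition of growth.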 Calls of active or inactive are those of the source. Rule as the data show it: active = GI50 up to about 1.1 µM and inactive = higher. Some results are limits rather than exact numbers.

As usually defined, the GI50 is the concentration that inhibits growth by half. In the case of `COC(=O)C1=C(OC(=O)/C(=C/c2ccccc2)c2ccc(Cl)cc2)C(C(=O)OC)[C@@]2(O)[C@@H](C(=O)OC)[C@H](C)C[C@@H]1[C@@H]2C(=O)OC` (stereo not given in full), the GI50 in the assay with SR, in the assay with SF-295, in the assay on HCC 2998, in the assay on NCI-H23, in the assay on M14 and in the assay with HCT-116 was > 100 µM (inactive) in each case. Further, the GI50 is more than 100 µM in the assay with HCT-15; > 100 µM (inactive) with A498; > 100 µM (inactive) in the assay with SF-539; > 100 µM (inactive) with OVCAR-4; 29.1 µM (inactive) with HOP-92; > 100 µM (inactive) in the assay on Malme-3M. The GI50 with 786-0, in the assay with PC-3, in the assay with MDA-MB-435, with HL-60, with LOX IMVI and with UO-31 was > 100 µM (inactive) each time. For the same compound, the GI50 with IGROV-1 and with NCI-H460 was > 100 µM (inactive) in each case.
`COc1cc(C(=O)OC2CC(C)=CC[C@@]3(C)CC[C@](O)(C(C)C)C23)ccc1O` (stereo not given in full): the GI50 in the assay with SR was 25.5 µM (inactive); in the assay on SF-295 it was 21.7 µM (inactive); in the assay with HCC 2998 it was 14.5 µM (inactive); in the assay on NCI-H23, 17.8 µM (inactive); with M14, 17 µM (inactive); in the assay on HCT-116, 19 µM (inactive). For the same compound, the concentration for 50% growth inhibition (GI50) in the assay on HCT-15 was 18.6 µM; with A498 it was 18.9 µM (inactive); with SF-539 it was 14.1 µM (inactive); with OVCAR-4 it was 15.9 µM (inactive); in the assay with HOP-92, 16.3 µM (inactive); in the assay with Malme-3M it was 18.6 µM (inactive). Moreover, the GI50 in the assay with 786-0 is 17.3 µM (inactive); in the assay with PC-3, 17.4 µM (inactive); with MDA-MB-435 it was 40.5 µM (inactive); with HL-60, 31.6 µM (inactive); with LOX IMVI, 16.2 µM (inactive); in the assay with UO-31 it was 16.4 µM (inactive). The GI50 in the assay on IGROV-1 was 19 µM (inactive); with NCI-H460, 16.6 µM (inactive).
Take `COc1ccc(-c2c(C#N)c(N)nc(Sc3ccccc3N)c2C#N)cc1`: the GI50 in the assay with SR was 43.7 µM (inactive); with SF-295, 10.2 µM (inactive); in the assay with HCC 2998 it was > 43.1 µM (inactive); in the assay with NCI-H23 it was > 48.4 µM (inactive); in the assay on M14, 27.9 µM (inactive); in the assay with HCT-116, 10.7 µM (inactive). For the same compound, the GI50 with HCT-15 is 24 µM; with A498, 4.73 µM (inactive); in the assay with SF-539 it was 12.1 µM (inactive); with OVCAR-4, 13.6 µM (inactive); in the assay on HOP-92, 4.79 µM (inactive); in the assay on Malme-3M, 10.2 µM (inactive). Further, the GI50 with 786-0 was 4.82 µM (inactive); in the assay on PC-3, 12.9 µM (inactive); in the assay with MDA-MB-435, > 83 µM (inactive); in the assay with HL-60, > 100 µM (inactive); with LOX IMVI it was 16.8 µM (inactive); with UO-31 it was 13.3 µM (inactive). Besides, the GI50 with IGROV-1 was 10.8 µM (inactive); in the assay with NCI-H460, 19 µM (inactive).
For the compound `N#Cc1cc2c(cc1C#N)SCCSCCCSCCS2`, the GI50 in the assay with SR was 36.4 µM (inactive); in the assay on SF-295, 5.47 µM (inactive); in the assay on HCC 2998 it was > 72.4 µM (inactive); with NCI-H23, 16.1 µM (inactive); in the assay with M14, 38.3 µM (inactive); in the assay on HCT-116 it was 21.3 µM (inactive). Also, the GI50 was 14.6 µM in the assay with HCT-15; 40.8 µM (inactive) in the assay on A498; 10.4 µM (inactive) in the assay with SF-539; 8.93 µM (inactive) with OVCAR-4; 2.49 µM (inactive) with HOP-92; 20.1 µM (inactive) in the assay with Malme-3M. The GI50 with 786-0 is 5.09 µM (inactive); in the assay on PC-3, 21.9 µM (inactive); with MDA-MB-435 it was > 100 µM (inactive); in the assay with HL-60 it was > 10 µM (inactive); with LOX IMVI, 6.31 µM (inactive); in the assay with UO-31, > 53.3 µM (inactive). In addition, the GI50 in the assay on IGROV-1 is 24.7 µM (inactive); with NCI-H460, 15.2 µM (inactive).
As to `O=C(NNC(=S)Nc1ccccc1)C12CC3CC(CC(C3)C1)C2`, the GI50 is 0.252 µM (active) with SR; 11.4 µM (inactive) in the assay with SF-295; 30.9 µM (inactive) with HCC 2998; 31.8 µM (inactive) in the assay with NCI-H23; 13.8 µM (inactive) in the assay with M14; 13.6 µM (inactive) in the assay on HCT-116. Besides, the GI50 is 7.28 µM in the assay on HCT-15; 21.1 µM (inactive) with A498; 25.8 µM (inactive) in the assay with SF-539; 29.2 µM (inactive) in the assay on OVCAR-4; 30.1 µM (inactive) in the assay on HOP-92; 20 µM (inactive) with Malme-3M. Moreover, the GI50 was 19.3 µM (inactive) in the assay with 786-0; 18.2 µM (inactive) with PC-3; 23.7 µM (inactive) in the assay on MDA-MB-435; 7.01 µM (inactive) with HL-60; 11.2 µM (inactive) in the assay on LOX IMVI; 4.58 µM (inactive) in the assay on UO-31. Moreover, the GI50 in the assay on IGROV-1 is 25.1 µM (inactive); in the assay on NCI-H460 it was 7.23 µM (inactive).
For the compound `COC1C(N)C(OC2C(Oc3cccc4c(O)c5c(=O)oc6ccc(C)c7c(=O)oc(c34)c5c67)OC(C)C(O)C2(C)O)OC(C)C1O` (stereo not given), the GI50 was < 0.215 µM (active) with SR; 0.0312 µM (active) in the assay with SF-295; 0.11 µM (active) in the assay on HCC 2998; 0.0269 µM (active) in the assay with NCI-H23; 0.0789 µM (active) in the assay with M14; < 0.01 µM (active) with HCT-116. The GI50 was 0.0925 µM with HCT-15; < 0.01 µM (active) in the assay on A498; < 0.0154 µM (active) in the assay on SF-539; 0.405 µM (active) with OVCAR-4; 0.0231 µM (active) with HOP-92; < 0.0107 µM (active) in the assay with Malme-3M. Besides, the GI50 was < 0.0123 µM (active) in the assay on 786-0; 0.0246 µM (active) in the assay with PC-3; 0.0313 µM (active) in the assay with MDA-MB-435; 0.0416 µM (active) in the assay with HL-60; < 0.0125 µM (active) in the assay with LOX IMVI; 0.0746 µM (active) in the assay on UO-31. The values for the GI50 in the assay with IGROV-1 and in the assay with NCI-H460 were < 0.0197 µM (active) and < 0.0122 µM (active), respectively.
As to `COc1cccc(N2N=C3c4ccccc4-n4c(nc5ccccc54)C3C2N)c1` (stereo not given), the GI50 in the assay on SR was 86.5 µM (inactive); in the assay with SF-295 it was > 100 µM (inactive); in the assay with HCC 2998 it was > 100 µM (inactive); with NCI-H23, > 100 µM (inactive); with M14, 34.1 µM (inactive); with HCT-116, > 100 µM (inactive). The GI50 in the assay on HCT-15 is more than 100 µM; in the assay on A498, > 100 µM (inactive); in the assay on SF-539, > 100 µM (inactive); with OVCAR-4, > 100 µM (inactive); with HOP-92, > 100 µM (inactive); in the assay with Malme-3M, 66.1 µM (inactive). In addition, the GI50 with 786-0 is > 100 µM (inactive); in the assay on PC-3, > 100 µM (inactive); in the assay with MDA-MB-435 it was 62.8 µM (inactive); in the assay on HL-60, > 100 µM (inactive); with LOX IMVI, > 100 µM (inactive); in the assay with UO-31, > 100 µM (inactive). Further, the GI50 with IGROV-1 and with NCI-H460 was > 100 µM (inactive) throughout.
`O=c1c2cc([N+](=O)[O-])ccc2[nH]n1Cc1ccccc1Cl`: the GI50 was 43.5 µM (inactive) in the assay on SR; > 100 µM (inactive) in the assay on SF-295; 57.9 µM (inactive) in the assay with HCC 2998; 59.6 µM (inactive) with NCI-H23; 86.1 µM (inactive) in the assay with M14; 55.7 µM (inactive) in the assay with HCT-116. For the same compound, the GI50 in the assay on HCT-15 is more than 100 µM; with A498 it was 33.3 µM (inactive); with SF-539, 98.4 µM (inactive); in the assay with OVCAR-4, > 100 µM (inactive); in the assay with HOP-92, 27.8 µM (inactive); with Malme-3M, 26.7 µM (inactive). Further, the GI50 is 64.9 µM (inactive) in the assay on 786-0; 93.8 µM (inactive) with PC-3; 64.9 µM (inactive) in the assay with MDA-MB-435; 30.8 µM (inactive) with HL-60; > 100 µM (inactive) with LOX IMVI; 39 µM (inactive) in the assay with UO-31. The results for the GI50 with IGROV-1 and in the assay on NCI-H460 were 80.2 µM (inactive) and 31 µM (inactive), respectively.
With `CC1(C)CCC[C@@]2(C)C1CC[C@@]1(CO)O[C@H](C3=CC(=O)OC3O)C[C@H]12` (stereo not given in full), the GI50 in the assay on SR was 2.71 µM (inactive); in the assay on SF-295, 21.5 µM (inactive); in the assay on HCC 2998, 17.4 µM (inactive); in the assay with NCI-H23, 13.6 µM (inactive); with M14, 11.8 µM (inactive); in the assay on HCT-116 it was 6.1 µM (inactive). Further, the GI50 in the assay on HCT-15 was 7.57 µM; with A498, 15 µM (inactive); with SF-539, 19.3 µM (inactive); in the assay with OVCAR-4, 14.5 µM (inactive); in the assay on HOP-92, 19.1 µM (inactive); with Malme-3M, 11 µM (inactive). In addition, the GI50 with 786-0 is 15 µM (inactive); with PC-3, 13.8 µM (inactive); with MDA-MB-435, 11.5 µM (inactive); with HL-60 it was 1.66 µM (inactive); in the assay with LOX IMVI, 1.56 µM (inactive); in the assay with UO-31, 15.2 µM (inactive). Further, the figures for the GI50 in the assay on IGROV-1 and with NCI-H460 were 18.1 µM (inactive) and 17.7 µM (inactive), respectively.
Turning to `CCN(CC)CCNc1ccc2nnn3c4ccc(O)cc4c(=O)c1c23`, the GI50 was 0.06 µM (active) in the assay with SR; 2.35 µM (inactive) in the assay on SF-295; 1.52 µM (inactive) in the assay on HCC 2998; 5.73 µM (inactive) with NCI-H23; 6.65 µM (inactive) in the assay with M14; 0.935 µM (active) in the assay on HCT-116. The GI50 in the assay with HCT-15 was 1.83 µM; with A498, 8.83 µM (inactive); with SF-539, 1.71 µM (inactive); with OVCAR-4, 2.64 µM (inactive); in the assay with HOP-92, 4.35 µM (inactive); with Malme-3M it was 4.93 µM (inactive). Moreover, the GI50 in the assay with 786-0 was 1.24 µM (inactive); with PC-3 it was 3.09 µM (inactive); in the assay on MDA-MB-435 it was 3.56 µM (inactive); in the assay on HL-60, 2.05 µM (inactive); with LOX IMVI, 1.21 µM (inactive); in the assay with UO-31 it was 0.608 µM (active). The results for the GI50 with IGROV-1 and with NCI-H460 were 4.01 µM (inactive) and 0.0314 µM (active), respectively.
